pEC50: −log10 of the molar value. *1 amine or outer side, *2 acyl side, *3 side chain or, on linkers, in order; H or OH if unused. Where a SMILES comes first, the peptide text is derived from it. [ ]: non-standard residue; d: D form. The star is where a group is joined. C20 diacid = O=C(O)CCCCCCCCCCCCCCCCCCC(=O)*; γGlu = O=C(O)[C@H](CCC(=O)[*:2])N[*:1]; βAsp = O=C(O)[C@H](CC(=O)[*:2])N[*:1]; AEEA = NCCOCCOCC(=O)O; Inp = O=C(O)C1CCNCC1

In this assay the target is T1, human amylin receptors (Homo sapiens, UniProt O60896+P30988).
T1 sequence (P30988 25-474): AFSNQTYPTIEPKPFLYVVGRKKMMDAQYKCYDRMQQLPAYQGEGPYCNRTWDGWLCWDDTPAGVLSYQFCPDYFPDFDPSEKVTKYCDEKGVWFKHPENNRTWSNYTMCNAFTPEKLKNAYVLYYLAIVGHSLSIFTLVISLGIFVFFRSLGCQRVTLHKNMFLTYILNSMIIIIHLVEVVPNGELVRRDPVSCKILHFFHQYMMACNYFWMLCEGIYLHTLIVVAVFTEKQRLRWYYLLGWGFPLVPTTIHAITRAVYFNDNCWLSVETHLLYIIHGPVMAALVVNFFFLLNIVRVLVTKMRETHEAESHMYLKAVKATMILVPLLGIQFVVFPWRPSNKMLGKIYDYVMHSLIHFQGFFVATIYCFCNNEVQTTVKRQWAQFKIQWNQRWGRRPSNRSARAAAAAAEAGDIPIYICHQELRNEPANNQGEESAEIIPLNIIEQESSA
T1 sequence (O60896 24-148 partner): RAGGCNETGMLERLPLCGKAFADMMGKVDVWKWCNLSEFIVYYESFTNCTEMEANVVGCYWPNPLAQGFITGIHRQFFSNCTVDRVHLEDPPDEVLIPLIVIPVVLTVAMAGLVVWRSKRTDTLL
Briefly: Luciferase assay of amylin (amylin receptor/CRE-luc cell line).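 Also: agonist potency from luminescence of cAMP response element-driven luciferase, EC50 derived from a standard curve of signal versus compound concentration.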 The assay is classed as cell-based. The conditions noted are these: stably transfected amylin receptor/CRE-luc CHO cells (CHO-K1/Gal5/AMY3), 24 hours incubation, luciferase readout.
The compound `CC(C)C[C@H](NC(=O)[C@H](CCCNC(=N)N)NC(=O)CNC(=O)[C@H](CC(C)C)NC(=O)[C@@H](NC(=O)[C@H](C)NC(=O)[C@@H](NC(=O)[C@H](CO)NC(=O)[C@H](CC(C)C)NC(=O)[C@H](CCC(N)=O)NC(=O)[C@H](CO)NC(=O)[C@H](C)NC(=O)C[C@H](NC(=O)CCCCCCCCCCCCCCCCCCC(=O)O)C(=O)O)[C@@H](C)O)C(C)C)C(=O)N[C@@H](CO)C(=O)N[C@@H](CCC(=O)O)C(=O)N[C@@H](CCC(=O)O)C(=O)N[C@@H](CC(C)C)C(=O)N[C@@H](Cc1c[nH]cn1)C(=O)N[C@@H](CCCNC(=N)N)C(=O)N[C@@H](CC(C)C)C(=O)N[C@@H](CCC(N)=O)C(=O)N[C@@H](CC(=O)O)C(=O)N[C@@H](Cc1ccc(O)cc1)C(=O)N1CCC[C@H]1C(=O)N[C@@H](CCCNC(=N)N)C(=O)N[C@H](C(=O)N[C@@H](CC(=O)O)C(=O)N[C@H](C(=O)NCC(=O)N[C@@H](CO)C(=O)NCC(=O)N[C@@H](CO)C(=O)N1CCC[C@H]1C(N)=O)C(C)C)[C@@H](C)O` [M53] ({C20 diacid-βAsp}-ASQLSTAVLGRLSEELHRLQDYPRTDVGSGSP-NH2) showed a pEC50 of 10.77. In the case of `CC(C)C[C@H](NC(=O)[C@H](CCCNC(=N)N)NC(=O)CNC(=O)[C@H](CC(C)C)NC(=O)[C@@H](NC(=O)[C@H](C)NC(=O)[C@@H](NC(=O)[C@H](CO)NC(=O)[C@H](CC(C)C)NC(=O)[C@H](CCC(N)=O)NC(=O)[C@H](CO)NC(=O)[C@H](C)NC(=O)[C@H](CC(=O)O)NC(=O)CCCCCCCCCCCCCCCCCCC(=O)O)[C@@H](C)O)C(C)C)C(=O)N[C@@H](CO)C(=O)N[C@@H](CCC(=O)O)C(=O)N[C@@H](CCC(=O)O)C(=O)N[C@@H](CC(C)C)C(=O)N[C@@H](Cc1c[nH]cn1)C(=O)N[C@@H](CCCNC(=N)N)C(=O)N[C@@H](CC(C)C)C(=O)N[C@@H](CCC(N)=O)C(=O)N[C@@H](CC(=O)O)C(=O)N[C@@H](Cc1ccc(O)cc1)C(=O)N1CCC[C@H]1C(=O)N[C@@H](CCCNC(=N)N)C(=O)N[C@H](C(=O)N[C@@H](CC(=O)O)C(=O)N[C@H](C(=O)NCC(=O)N[C@@H](CO)C(=O)NCC(=O)N[C@@H](CO)C(=O)N1CCC[C@H]1C(N)=O)C(C)C)[C@@H](C)O` [M54] ({C20 diacid}-DASQLSTAVLGRLSEELHRLQDYPRTDVGSGSP-NH2), the pEC50 was 10.77. The figure for `CC(C)C[C@H](NC(=O)[C@H](CCCNC(=N)N)NC(=O)CNC(=O)[C@H](CC(C)C)NC(=O)[C@@H](NC(=O)[C@H](C)NC(=O)[C@@H](NC(=O)[C@H](CO)NC(=O)[C@H](CC(C)C)NC(=O)[C@H](CCC(N)=O)NC(=O)[C@H](CO)NC(=O)[C@H](C)NC(=O)C1CCN(C(=O)CCCCCCCCCCCCCCCCCCC(=O)O)CC1)[C@@H](C)O)C(C)C)C(=O)N[C@@H](CO)C(=O)N[C@@H](CCC(=O)O)C(=O)N[C@@H](CCC(=O)O)C(=O)N[C@@H](CC(C)C)C(=O)N[C@@H](Cc1c[nH]cn1)C(=O)N[C@@H](CCCNC(=N)N)C(=O)N[C@@H](CC(C)C)C(=O)N[C@@H](CCC(N)=O)C(=O)N[C@@H](CC(=O)O)C(=O)N[C@@H](Cc1ccc(O)cc1)C(=O)N1CCC[C@H]1C(=O)N[C@@H](CCCNC(=N)N)C(=O)N[C@H](C(=O)N[C@@H](CC(=O)O)C(=O)N[C@H](C(=O)NCC(=O)N[C@@H](CO)C(=O)NCC(=O)N[C@@H](CO)C(=O)N1CCC[C@H]1C(N)=O)C(C)C)[C@@H](C)O` [M56] ({C20 diacid-Inp}-ASQLSTAVLGRLSEELHRLQDYPRTDVGSGSP-NH2) is 10.77; for `CC(C)C[C@H](NC(=O)[C@H](CCCNC(=N)N)NC(=O)CNC(=O)[C@H](CC(C)C)NC(=O)[C@@H](NC(=O)[C@H](C)NC(=O)[C@@H](NC(=O)[C@H](CO)NC(=O)[C@H](CC(C)C)NC(=O)[C@H](CCC(N)=O)NC(=O)[C@H](CO)NC(=O)[C@H](C)NC(=O)COCCOCCNC(=O)COCCOCCNC(=O)CC[C@H](NC(=O)CCCCCCCCCCCCCCCCCCC(=O)O)C(=O)O)[C@@H](C)O)C(C)C)C(=O)N[C@@H](CO)C(=O)N[C@@H](CCC(=O)O)C(=O)N[C@@H](CCC(=O)O)C(=O)N[C@@H](CC(C)C)C(=O)N[C@@H](Cc1c[nH]cn1)C(=O)N[C@@H](CCCNC(=N)N)C(=O)N[C@@H](CC(C)C)C(=O)N[C@@H](CCC(N)=O)C(=O)N[C@@H](CC(=O)O)C(=O)N[C@@H](Cc1ccc(O)cc1)C(=O)N1CCC[C@H]1C(=O)N[C@@H](CCCNC(=N)N)C(=O)N[C@H](C(=O)N[C@@H](CC(=O)O)C(=O)N[C@H](C(=O)NCC(=O)N[C@@H](CO)C(=O)NCC(=O)N[C@@H](CO)C(=O)N1CCC[C@H]1C(N)=O)C(C)C)[C@@H](C)O` [M57] ({C20 diacid-γGlu-AEEA-AEEA}-ASQLSTAVLGRLSEELHRLQDYPRTDVGSGSP-NH2) it is 10.77. `CC(C)C[C@H](NC(=O)[C@H](CCCNC(=N)N)NC(=O)CNC(=O)[C@H](CC(C)C)NC(=O)[C@@H](NC(=O)[C@H](C)NC(=O)[C@@H](NC(=O)[C@H](CO)NC(=O)[C@H](CC(C)C)NC(=O)[C@H](CCC(N)=O)NC(=O)[C@H](CO)NC(=O)[C@H](C)NC(=O)COCCOCCNC(=O)COCCOCCNC(=O)[C@H](CCC(=O)O)NC(=O)CCCCCCCCCCCCCCCCCCC(=O)O)[C@@H](C)O)C(C)C)C(=O)N[C@@H](CO)C(=O)N[C@@H](CCC(=O)O)C(=O)N[C@@H](CCC(=O)O)C(=O)N[C@@H](CC(C)C)C(=O)N[C@@H](Cc1c[nH]cn1)C(=O)N[C@@H](CCCNC(=N)N)C(=O)N[C@@H](CC(C)C)C(=O)N[C@@H](CCC(N)=O)C(=O)N[C@@H](CC(=O)O)C(=O)N[C@@H](Cc1ccc(O)cc1)C(=O)N1CCC[C@H]1C(=O)N[C@@H](CCCNC(=N)N)C(=O)N[C@H](C(=O)N[C@@H](CC(=O)O)C(=O)N[C@H](C(=O)NCC(=O)N[C@@H](CO)C(=O)NCC(=O)N[C@@H](CO)C(=O)N1CCC[C@H]1C(N)=O)C(C)C)[C@@H](C)O` [M58] ({C20 diacid}-E[AEEA][AEEA]ASQLSTAVLGRLSEELHRLQDYPRTDVGSGSP-NH2) showed a pEC50 of 10.77.

`CC(C)C[C@H](NC(=O)[C@H](CCCNC(=N)N)NC(=O)CNC(=O)[C@H](CC(C)C)NC(=O)[C@@H](NC(=O)[C@H](C)NC(=O)[C@@H](NC(=O)[C@H](CO)NC(=O)[C@H](CC(C)C)NC(=O)[C@H](CCC(N)=O)NC(=O)[C@H](CO)NC(=O)[C@H](C)NC(=O)COCCOCCNC(=O)COCCOCCNC(=O)C[C@H](NC(=O)CCCCCCCCCCCCCCCCCCC(=O)O)C(=O)O)[C@@H](C)O)C(C)C)C(=O)N[C@@H](CO)C(=O)N[C@@H](CCC(=O)O)C(=O)N[C@@H](CCC(=O)O)C(=O)N[C@@H](CC(C)C)C(=O)N[C@@H](Cc1c[nH]cn1)C(=O)N[C@@H](CCCNC(=N)N)C(=O)N[C@@H](CC(C)C)C(=O)N[C@@H](CCC(N)=O)C(=O)N[C@@H](CC(=O)O)C(=O)N[C@@H](Cc1ccc(O)cc1)C(=O)N1CCC[C@H]1C(=O)N[C@@H](CCCNC(=N)N)C(=O)N[C@H](C(=O)N[C@@H](CC(=O)O)C(=O)N[C@H](C(=O)NCC(=O)N[C@@H](CO)C(=O)NCC(=O)N[C@@H](CO)C(=O)N1CCC[C@H]1C(N)=O)C(C)C)[C@@H](C)O` [M59] ({C20 diacid-βAsp-AEEA-AEEA}-ASQLSTAVLGRLSEELHRLQDYPRTDVGSGSP-NH2) gave a pEC50 of 10.77. The figure for `CC(C)C[C@H](NC(=O)[C@H](CCCNC(=N)N)NC(=O)CNC(=O)[C@H](CC(C)C)NC(=O)[C@@H](NC(=O)[C@H](C)NC(=O)[C@@H](NC(=O)[C@H](CO)NC(=O)[C@H](CC(C)C)NC(=O)[C@H](CCC(N)=O)NC(=O)[C@H](CO)NC(=O)[C@H](C)NC(=O)COCCOCCNC(=O)COCCOCCNC(=O)[C@H](CC(=O)O)NC(=O)CCCCCCCCCCCCCCCCCCC(=O)O)[C@@H](C)O)C(C)C)C(=O)N[C@@H](CO)C(=O)N[C@@H](CCC(=O)O)C(=O)N[C@@H](CCC(=O)O)C(=O)N[C@@H](CC(C)C)C(=O)N[C@@H](Cc1c[nH]cn1)C(=O)N[C@@H](CCCNC(=N)N)C(=O)N[C@@H](CC(C)C)C(=O)N[C@@H](CCC(N)=O)C(=O)N[C@@H](CC(=O)O)C(=O)N[C@@H](Cc1ccc(O)cc1)C(=O)N1CCC[C@H]1C(=O)N[C@@H](CCCNC(=N)N)C(=O)N[C@H](C(=O)N[C@@H](CC(=O)O)C(=O)N[C@H](C(=O)NCC(=O)N[C@@H](CO)C(=O)NCC(=O)N[C@@H](CO)C(=O)N1CCC[C@H]1C(N)=O)C(C)C)[C@@H](C)O` [M60] ({C20 diacid}-D[AEEA][AEEA]ASQLSTAVLGRLSEELHRLQDYPRTDVGSGSP-NH2) is 10.80. The figure for `CC(C)C[C@H](NC(=O)[C@H](CCCNC(=N)N)NC(=O)CNC(=O)[C@H](CC(C)C)NC(=O)[C@@H](NC(=O)[C@H](C)NC(=O)[C@@H](NC(=O)[C@H](CO)NC(=O)[C@H](CC(C)C)NC(=O)[C@H](CCC(N)=O)NC(=O)[C@H](CO)NC(=O)[C@H](C)NC(=O)COCCOCCNC(=O)COCCOCCNC(=O)C1CCN(C(=O)CCCCCCCCCCCCCCCCCCC(=O)O)CC1)[C@@H](C)O)C(C)C)C(=O)N[C@@H](CO)C(=O)N[C@@H](CCC(=O)O)C(=O)N[C@@H](CCC(=O)O)C(=O)N[C@@H](CC(C)C)C(=O)N[C@@H](Cc1c[nH]cn1)C(=O)N[C@@H](CCCNC(=N)N)C(=O)N[C@@H](CC(C)C)C(=O)N[C@@H](CCC(N)=O)C(=O)N[C@@H](CC(=O)O)C(=O)N[C@@H](Cc1ccc(O)cc1)C(=O)N1CCC[C@H]1C(=O)N[C@@H](CCCNC(=N)N)C(=O)N[C@H](C(=O)N[C@@H](CC(=O)O)C(=O)N[C@H](C(=O)NCC(=O)N[C@@H](CO)C(=O)NCC(=O)N[C@@H](CO)C(=O)N1CCC[C@H]1C(N)=O)C(C)C)[C@@H](C)O` [M62] ({C20 diacid-Inp-AEEA-AEEA}-ASQLSTAVLGRLSEELHRLQDYPRTDVGSGSP-NH2) is 10.80.

In general, pEC50 refers to the EC50 on a negative log10 scale, so that one unit is a factor of ten. The low end stands for a large EC50, the high end for a small EC50.
